Test results reported in patent publication EP0366451A2, “The use of oxidized polyamines, especially NN'-Bis-(3-propionaldehyde)-1-4-diaminobutane (sperminedialdehyde) as immunosuppressive agents” (ORTHO PHARMACEUTICAL CORPORATION, priority 1988, dated 1990).
pIC50: −log10 of the molar value.

Assays:
[1] = system: L1210/0 cells; experiment: L1210/0 cell proliferation ([3H]-thymidine incorporation); type: cell-based, Murine
Experimental: Murine lymphocytic leukemia cell lines, L1210/CPA and L1210/0 (als. known as Le/CPA and Le/0) were kindly provided by Dr. F. Struck, Southern Research Institute, Birmingham, AL. Cells were grown in RPMI-1640, supplemented with 10% horse serum, 100 units/ml penicillin and 100 µg/ml streptomycin. The cultures were incubated at 37°C in a humidified atmosphere with 5% CO₂ in air. Bone marrow cells were flushed from femurs of mice with RPMI-1640, using a tuberculin syringe fitted with a 25 gauge meedle. For spleen cells, spleens were removed and passed through a fine wire mesh to get a single homogenous cell suspension. In either case, cells were centrifuged, washed twice and resuspended in the drug exposure medium (see below). Cell viability was determined by trypan blue exclusion and the cell suspension was diluted to the desired concentration.
Murine leukemic cells and bone marrow/spleen cells were treated with SDA (1 x 10^-6 M to 5 x 10⁻⁵ M) in RPMI-1640 or PBS based solution. Wherever mentioned, cells were pretreated with DEAB (10-30 µM) for 30-60 min at 37°C and then exposed to SDA.
For [³H]-thymidine incorporation, drug or vehicle treated bone marrow or spleen cells were plated in RPMI-1640, containing 10% fetal bovine serum, 10 µM β-mercaptoethanol, 25 mM HEPES and 2 mM glutamine. Con-A (4 µg/ml and […]) was used as mitogens for bone marrow and spleen cells. Three days later, [³H]-thymidine (0.2 µCi/well) was added and cells were harvested after 12-18 hrs. L1210/CPA and L1210/0 cells (0.1 - 1 x 10⁵ cells/well were plated in RPMI-1640 containing 10% horse serum. [³H]-thymidine was added after 24 hrs and cells were filtered on GF/B filter paper for scintillation counting.

[2] = system: Cytosolic ALDH in mouse liver; experiment: NAD-linked cytosolic ALDH assay, mouse liver; type: biochemical
Experimental: Cultured murine leukemic cells and livers (excised from mice immediately after cervical dislocation) were homogenized in 3 volumes of ice-cold 1.15% KCl and 1 mM EDTA. The homogenate was centrifuged at 100,000 g for 45 min and the resulting supernatant was used to measure cytosolic ALDH activity. For particulate ALDH assay, the pellet (and homogenate for total ALDH) was resuspended in homogenizing buffer and treated with 0.25% Triton X-100 for 30 min at 4°C. The solubilized preparations were centrifuged at 48,000 g for 30 min and the supernatants were drawn off for ALDH determinations.
ALDH activity was measured by monitoring the reduction of NAD or NADp for 5-6 min at […] at 37°C in DU70 spectrophotometer (Beckman). The assay mixture contained 50 mM potassium phosphate buffer, pH 7.4, 2.0 mM NAD (or NADP) and 1.0 mM EDTA. The reaction was started by adding the substrate (SDA or other aldehyde) to the prewarmed (5 min at 37°C) assay mixture containing enzyme preparation. Pyrazole (0.1 mM) was added particularly for liver enzyme, to inhibit alcohol dehydrogenase. The apparent Km and maximum velocity (Vmax) values were calculated using a Lineweaver-Burk plot based on the estimation of the slope by regression analysis. Enzyme activity was expressed as mU (nmoles/min) per mg of protein. Protein contents were determined by the Bradford method, using bovine serum albumin as the standard.

[3] = system: lethally irradiated AKR mice; experiment: Bone marrow transplantation with ex vivo treated graft (GVHD, survival); type: in vivo
Experimental: C57BL spleen and bone marrow cell mixtures were treated with different concentrations of spermine dialdehyde or control preparation and injected i.v. into lethally irradiated AKR mice. A graph is depicted wherein percentage survival is scored as a function of time.
In bone marrow transplantation, bone marrow cells from normal donor mice were transplanted to totally histoincompatible and lethally irradiated recipients. All recipient mice received 9.5 Gy (950 rads) total body irradiation on day 0 and were then housed in microisolator cages thereafter. They were given autoclaved rodent laboratory chow throughout the whole study and also were allowed to feed ad libitum. Recipients also received 1.5 mg/kg of gentamicin subcutaneously for 20 days after irradiation. On the day of irradiation, bone marrow cells mixed in 3:1 ratio with spleen cells were removed from donors and incubated for an hour with different concentrations of spermine dialdehyde for 1 hour. Spleen cells were added to intensify subsequent graft vs. host disease (GVHD). After incubation, cells were washed 3 times and then injected intravenously into irradiated recipients. Signs of GVHD and survival were scored every day thereafter.
Bone marrow and spleen cell mixtures (3:1 ratio) from C57BL mice were incubated with control preparation or various concentrations of spermine dialdehyde for 1 hour Cells were then washed extensively and injected intravenously into lethally irradiated histoincompatible AKR mice. Signs of graft vs. host diseases such as hunched back, diarrhea, alopecia, and physical conditions were recorded daily. […] Thus treatment with lower doses of spermine dialdehyde inactivated T lymphocytes without being toxic to marrow celis and allowed animals to reconstitute with little sign of GVHD.

[4] = target: T1, S-Adenosylmethionine Decarboxylase (AdoMet DC) (Mus musculus, UniProt P0DMN7); experiment: AdoMet DC inhibition in L1210 cell supernatants ([14C]CO2 release); type: biochemical, Murine
T1 construct: endogenous in cells; host or cells: murine leukemic L1210 cells (supernatant)
T1 sequence (P0DMN7 68-334 limits assumed): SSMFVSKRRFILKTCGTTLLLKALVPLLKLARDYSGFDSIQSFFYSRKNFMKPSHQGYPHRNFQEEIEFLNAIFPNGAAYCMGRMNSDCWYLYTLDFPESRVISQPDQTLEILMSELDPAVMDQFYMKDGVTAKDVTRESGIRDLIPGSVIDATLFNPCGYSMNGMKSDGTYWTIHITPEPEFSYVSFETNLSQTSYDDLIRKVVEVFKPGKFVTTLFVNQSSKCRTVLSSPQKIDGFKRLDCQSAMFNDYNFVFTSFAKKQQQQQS
T1 sequence (P0DMN7 1-67 limits assumed): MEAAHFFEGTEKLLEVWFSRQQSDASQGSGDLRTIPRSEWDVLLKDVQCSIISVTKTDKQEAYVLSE
Experimental: Murine leukemic L1210 cell supernatants were incubated with different concentrations of SDA or butyl dialdehyde, and AdoMet DC activity was estimated by monitoring the release of [¹⁴C] CO₂. Inhibition curves for both drugs were superimposable with IC₅₀ values of 0.12-0.13 x 10⁻³ M.

O=CCCNCCCCNCCC=O [SDA, NN′-Bis-(3-propionaldehyde)-1-4-diaminobutane]
effect of DEAB pretreatment on cytotoxicity of SDA ([1]; DEAB (20 µM) pretreatment): little or no effect | pIC50 ([1]; Mus musculus, L1210/0, [³H]-thymidine incorporation, read-out: mean IC₅₀): 5.33 | sensitivity of L1210/0 cells relative to L1210/CPA cells ([1]; proliferation assays): 2 fold | specific activity of ALDH, liver compared to L1210 cells ([2]; SDA as substrate, per mg protein): 1.5 times | Km ([2]; as substrate, mouse liver cytosol, NAD, ± SEM, 3-4 experiments): 48.5 µM | Specific (activity of ALDH) ([2]; as substrate, mouse liver cytosol, propionaldehyde 1.0 mM): 10.5 ± 3.2 mU/mg Protein | signs of GVHD ([3]; bone marrow treated ex vivo for 1 hour): only mild signs of GVHD | survival time ([3]; marrow treated ex vivo with lower doses (0.03-0.06), Figure 3): significantly prolonged survival time | marrow toxicity ([3]; very high dose groups of 0.2mM, ex vivo treatment): exhibited marrow toxicity | inhibition of AdoMet DC (in words) ([4]; Fig. 9 and Figure 10): inhibited both of the key enzymes | pIC50 ([4]; Figure 9, inhibition curves superimposable, read-out: IC₅₀ values): 3.89 to 3.92
